Results as given in patent US20210177992A1, “ANTICANCER FLUORESCENT SUBSTANCE DERIVED FROM NATURAL MATERIALS” (SEOUL NATIONAL UNIVERSITY R&DB FOUNDATION, priority 2017, published 2021).

Key:
cancer cells = test: Annexin V FACS, apoptotic cells in cancer cells compared with normal cells; type: cell-based; conditions: 100 μM resveratrone glucoside, 24 hours
Description: (§1) Cancer cell apoptotic effects of resveratrone and resveratrone glucoside (see U.S. Pat. No. 9,708,23762) were measured by FACS using Annexin-V binding to phosphatidiylserine (PS) which exists in the inner leaflet of the cytoplasmic membrane and is exposed to the outer leaflet of cell membrane during apoptosis.
In detail, apoptosis of normal cells or cancer cells, each treated with resveratrone or resveratrone glucoside, was evaluated by measuring signals of Alexa dye-conjugated annexin V using FACS. HeLa, MCF7, SW480, SW620, and HCC1954 which are cancer cells, and NIH3T3 and MCF10A which are normal cells, each treated with 50 μM resveratrone or 100 μM resveratrone glucoside, were cultured under conditions of 37° C. and 5% CO2 for 24 hours. Thereafter, media was removed, and the cells were washed with PBS buffer twice to remove remaining resveratrone or resveratrone glucoside. The cells were collected and centrifuged to remove supernatants. Annexin-bound buffer (10 mM HEPES, 140 mM NaCl, 2.5 mM CaCl2, pH 7.4) was added and resuspended. 5 μl of Alexa Fluor 647-conjugated annexin V was added to the resuspended cells at the cell volume of 100 μl, followed by incubation for 15 minutes. 1 ml of binding buffer was added to the incubated cells, followed by centrifugation. […]

normal cell MCF10A [1] = test: TUNEL assay; type: cell-based; conditions: 50 μM, 24 hours
Description: (§2) In detail, a cancer cell MCF7 and a normal cell MCF10A were treated with 50 μM of resveratrone or resveratrone glucoside, respectively, and incubated for 24 hours. Thereafter, the cells were treated with 0.5% PBS-Triton X-100 and incubated for 10 minutes to increase cell permeability. The cells were treated with terminal deoxynucleotide transferase and tetra-methyl-rhodamine dUTP, followed by incubation at 37° C. for 1 hour. Next, the cells were washed with PBS three times, and treated with DAPI dye for nuclear counterstaining. Apoptotic signals were observed using fluorescence images.

cancer cell MCF7 [2] = test: TUNEL assay; type: cell-based; conditions: MCF7, 50 μM, 24 hours
Description: as §2

MCF10A = test: Annexin V FACS apoptosis measurement; type: cell-based; conditions: MCF10A normal cell, 24 hours
Description: as §1
(§3) In detail, apoptosis of normal cells or cancer cells, each treated with resveratrone or resveratrone glucoside, was evaluated by measuring signals of Alexa dye-conjugated annexin V using FACS. HeLa, MCF7, SW480, SW620, and HCC1954 which are cancer cells, and NIH3T3 and MCF10A which are normal cells, each treated with 50 μM resveratrone or 100 μM resveratrone glucoside, were cultured under conditions of 37° C. and 5% CO2 for 24 hours. Thereafter, media was removed, and the cells were washed with PBS buffer twice to remove remaining resveratrone or resveratrone glucoside. The cells were collected and centrifuged to remove supernatants. Annexin-bound buffer (10 mM HEPES, 140 mM NaCl, 2.5 mM CaCl2, pH 7.4) was added and resuspended. 5 μl of Alexa Fluor 647-conjugated annexin V was added to the resuspended cells at the cell volume of 100 μl, followed by incubation for 15 minutes. 1 ml of binding buffer was added to the incubated cells, followed by centrifugation. The supernatant was removed to remove remaining Alexa Fluor 647-conjugated annexin V. Thereafter, 500 μl of annexin-binding buffer was further added, and cells were passed through a cell strainer cap and stored in a round-bottom tube.

MCF7 = test: Annexin V FACS apoptosis measurement; type: cell-based; conditions: MCF7 cancer cell, 24 hours
Description: as §1, §3

zebrafish embryos = test: Cytotoxicity and fluorescence in zebrafish embryos; type: in vivo; conditions: 300 μM, observed at 2 hr, 20 hr, 48 hr, 72 hr
Description: In detail, zebrafish embryos (donated by Hyunsook Lee Lab, School of Biological Sciences, Seoul National University) were cultured, and treated with 300 μM of resveratrone or resveratrone glucoside. At 2 hr, 20 hr, 48 hr, and 72 hr after treatment, their changes were observed.

[3] = test system: organoids having G12D mutation of Kras gene; test: Apoptosis in pancreatic organoids; type: cell-based, mouse; conditions: treatment repeated after 72 hr, read 12 hr after final treatment
Description: In detail, as an alternative to a pancreatic tissue of a wild-type mouse and an individual with cancer, a pancreatic tissue having G12D mutation of Kras gene was obtained from a transgenic mouse, and the pancreatic tissue was dissociated with a dissociation solution, filtered. Then, a cell pellet containing ductal cells was collected by centrifugation, and incubated with a biological substrate material. The dissociation solution containing Hank's Balanced Salt Solution (HBSS) (3 ml), collagenase P (5 mg/ml), and DNase 1 (1 Units/μl) was used in a volume of 3 ml per pancreatic tissue (Vpan=about 1.08 mg/mm^3). When the collected cell pellet was incubated with the biological substrate material, three-dimensional pancreatic organoids were prepared by incubation under conditions of 37° C. and 5% CO2 with Matrigel which is a gelatinous protein mixture secreted from the murine Engelbreth-Holm-Swarm (EHS) sarcoma. Resveratrone and resveratrone glucoside were treated using DMSO as a solvent to reach a specific concentration with respect to the culture. After 72 hr, the medium was replaced by a fresh culture medium, and the above treatment was repeated. 12 hr after final treatment, changes of the organoids were recorded using an inverted fluorescence microscope (available from Zeiss) capable of photographing […] fluorescence. […]

normal cell MCF10A [4] = test: Western blotting for cleaved parp; type: cell-based; conditions: 50 μM, 48 hours
Description: (§4) In detail, a cancer cell MCF7 and a normal cell MCF10A were treated with 50 μM of resveratrone, respectively, and incubated for 48 hours. The incubated cells were harvested and lysed with a NETN buffer (150 mM NaCl, 20 mM Tris/Cl pH 8.0, 0.5% v/v NP-40, 1 mM EDTA) containing a protease inhibitor, and then conjugated with a cleaved parp antibody, and sequentially, with a secondary antibody. Then, the presence or absence thereof was examined.

cancer cell MCF7 [5] = test: Western blotting for cleaved parp; type: cell-based; conditions: MCF7, 50 μM, 48 hours
Description: as §4

normal cell MCF10A [6] = test: Cell morphology by optical microscopy; type: cell-based; conditions: 50 μM, 48 hours
Description: (§5) In detail, a normal cell MCF10A and a cancer cell MCF7 were treated with 50 μM of resveratrone, respectively, and incubated for 48 hours. After incubation, media was removed, and the cells were washed with PBS buffer three times. Changes of cell morphology in PBS buffer were observed and compared by optical microscopy.

cancer cell MCF7 [7] = test: Cell morphology by optical microscopy; type: cell-based; conditions: MCF7, 50 μM, 48 hours
Description: as §5

HCC1954 = test: Annexin V FACS apoptosis measurement; type: cell-based; conditions: HCC1954 cancer cell, 50 μM resveratrone, 24 hours
Description: as §1, §3

SW480 = test: Annexin V FACS apoptosis measurement; type: cell-based; conditions: SW480 cancer cell, 50 μM resveratrone, 24 hours
Description: as §1, §3

NIH3T3 = test: Annexin V FACS apoptosis measurement; type: cell-based; conditions: NIH3T3 normal cell, 50 μM resveratrone, 24 hours
Description: as §1, §3

HeLa = test: Annexin V FACS apoptosis measurement; type: cell-based; conditions: HeLa cancer cell, 50 μM resveratrone, 24 hours
Description: as §1, §3

SW620 = test: Annexin V FACS apoptosis measurement; type: cell-based; conditions: SW620 cancer cell, 50 μM resveratrone, 24 hours
Description: as §1, §3

Structure (SMILES)	increase of number of apoptotic cells in cancer cells as compared with normal cells (cancer cells)	TUNEL apoptotic signals (normal cell MCF10A [1])	TUNEL apoptotic signals (cancer cell MCF7 [2])	Apoptotic fraction (%) (MCF10A; 100 μM resveratrone glucoside)	Apoptotic fraction (%) (MCF7; 100 μM resveratrone glucoside)	cytotoxicity during development of zebrafish embryos (zebrafish embryos)	apoptosis induction in organoids [3]	Cleaved parp presence (normal cell MCF10A [4])	Cleaved parp presence (cancer cell MCF7 [5])	Changes of cell morphology (normal cell MCF10A [6])	Changes of cell morphology (cancer cell MCF7 [7])	Apoptotic fraction (%) (HCC1954)	Apoptotic fraction (%) (SW480)	Apoptotic fraction (%) (NIH3T3)	Apoptotic fraction (%) (HeLa)	Apoptotic fraction (%) (MCF10A; 50 μM resveratrone)	Apoptotic fraction (%) (SW620)	Apoptotic fraction (%) (MCF7; 50 μM resveratrone)
CC(=O)/C=C/c1ccc2cc(O[C@@H]3OC(CO)[C@@H](O)C(O)C3O)cc(O)c2c1 (stereo partly drawn) [resveratrone glucoside]	about 22 times	no effect on normal cells	observed only in the cancer cell MCF7	0.7	15.5	induced no cytotoxicity	–	–	–	–	–	–	–	–	–	–	–	–
CC(=O)/C=C/c1ccc2cc(O)cc(O)c2c1 [resveratrone]	–	no effect on normal cells	observed only in the cancer cell MCF7	–	–	induced no cytotoxicity	showed apoptosis induction	not observed in the resveratrone-treated normal cells	observed in the resveratrone-treated cancer cells	clearly observed irrespective of treatment with resveratrone	showed morphological features of apoptosis	39.3	15.5	2.0	20.0	1.0	17.4	26.0
